Test results as given in the supplement of paper PMC11208160.

assay: recombinant barcode read abundance after kanamycin selection (control-corrected) (log10(CPM+1)); higher = more efficient recombination; sequences stand for … in AGTGCAGAGAAAATCGGCCAGTTTTCTCTGCCTGCAGTCCGCATGCCGT…AGATTTATGCAGCGGACTGCCTTTCTCCCAAAGTGATAAACCGGACAGTATCATGGACCGGTTTTCCCGGTAATCCGTATTTGCAAGGTTGGTTTCACT; site = the 11-nt target
In short: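 Values are log10(CPM+1) from a pooled E. coli screen of targets paired with IS621 bridge RNA target-binding loops. Recombination efficiency here means counts per million of recombinant-junction barcodes, averaged and control-corrected. Plates were chloramphenicol/ampicillin LB agar for the control and chloramphenicol/ampicillin/kanamycin with 0.1 mM IPTG, two replicates each.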
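Further: IS621 recombinase and bridge RNA in Escherichia coli cells.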

Row | Sequence | recombinant barcode read abundance (log10)
1 | GAGTTCCCTTGGGTTCTAACCTGTTGCGT (site GAGTTACCTAC) | 0.341
2 | GAGTTCCCTTGGGTTCTAACCTGTTGCGT (site GAGTTCCCTAC) | 2.66
3 | GAGTTCCCTTGGGTTCTAACCTGTTGCGT (site GAGTTGCCTAC) | 0.23
4 | GAGTTCCCTTGGGTTCTAACCTGTTGCGT (site GAGTTTCCTAC) | 0.0134
5 | GAGTTGCCTTGGGTTCTAACCTGTTGCGT (site GAGTTACCTAC) | 1.96
6 | GAGTTGCCTTGGGTTCTAACCTGTTGCGT (site GAGTTCCCTAC) | 0.108
7 | GAGTTGCCTTGGGTTCTAACCTGTTGCGT (site GAGTTGCCTAC) | 1.68
8 | GAGTTGCCTTGGGTTCTAACCTGTTGCGT (site GAGTTTCCTAC) | 0.0593
9 | GAGTTTCCTTGGGTTCTAACCTGTTGCAG (site GAGCGTCCTCT) | 0.118
10 | GAGTTTCCTTGGGTTCTAACCTGTTGCAG (site GAGTTTCCTCT) | 0.343
11 | GATAGAGCTTGGGTTCTAACCTGTTGCCG (site GATAGAGCTCG) | 0.772
12 | GATAGAGCTTGGGTTCTAACCTGTTGCCG (site GATATAGCTAG) | 0
13 | GATAGGCCTTGGGTTCTAACCTGTTGCTT (site AATTGGCCTAA) | 0.0314
14 | GATAGGCCTTGGGTTCTAACCTGTTGCTT (site GATAGGCCTAA) | 0.371
15 | GATAGTACTTGGGTTCTAACCTGTTGCCT (site GATAGTACTAG) | 1.48
16 | GATAGTACTTGGGTTCTAACCTGTTGCCT (site GATAGTCCTAG) | 0.0718
17 | GATAGTACTTGGGTTCTAACCTGTTGCCT (site GATAGTGCTAG) | 0.0995
18 | GATAGTACTTGGGTTCTAACCTGTTGCCT (site GATAGTTCTAG) | 0.17
19 | GATAGTTCTTGGGTTCTAACCTGTTGCCT (site GATAGTACTAG) | 0.0904
20 | GATAGTTCTTGGGTTCTAACCTGTTGCCT (site GATAGTCCTAG) | 0.675

Row | Sequence | recombinant barcode read abundance (log10)
21 | GATAGTTCTTGGGTTCTAACCTGTTGCCT (site GATAGTGCTAG) | 0.132
22 | GATAGTTCTTGGGTTCTAACCTGTTGCCT (site GATAGTTCTAG) | 0.264
23 | GATCATCCTTGGGTTCTAACCTGTTGCCT (site GATCATCCTAG) | 0.364
24 | GATCATCCTTGGGTTCTAACCTGTTGCCT (site GTTCATCCTAG) | 0.0462
25 | GATCCATCTTGGGTTCTAACCTGTTGCCT (site GATCCATCTAG) | 0.561
26 | GATCCATCTTGGGTTCTAACCTGTTGCCT (site GCTCCATCTAG) | 0.251
27 | GATCCATCTTGGGTTCTAACCTGTTGCCT (site GGTCCATCTAG) | 0.209
28 | GATCCATCTTGGGTTCTAACCTGTTGCCT (site GTTCCATCTAG) | 0.142
29 | GATCCGTCTTGGGTTCTAACCTGTTGCGG (site GATCCGTCTCC) | 0.136
30 | GATCCGTCTTGGGTTCTAACCTGTTGCGG (site GGTCCGGCTCC) | 0.551
31 | GATCCTACTTGGGTTCTAACCTGTTGCCT (site GATCCTACTAG) | 1.14
32 | GATCCTACTTGGGTTCTAACCTGTTGCCT (site GCTCCTACTAG) | 0.0495
33 | GATCCTACTTGGGTTCTAACCTGTTGCCT (site GGTCCTACTAG) | 0.346
34 | GATCCTACTTGGGTTCTAACCTGTTGCCT (site GTTCCTACTAG) | 0.0681
35 | GATCGATCTTGGGTTCTAACCTGTTGCGT (site GATCGATCTAA) | 0.197
36 | GATCGATCTTGGGTTCTAACCTGTTGCGT (site GATCGATCTAC) | 1.46
37 | GATCGATCTTGGGTTCTAACCTGTTGCGT (site GATCGATCTAG) | 0.284
38 | GATCGATCTTGGGTTCTAACCTGTTGCGT (site GATCGATCTAT) | 0.265
39 | GATCTGCCTTGGGTTCTAACCTGTTGCCT (site GATCAGCCTAG) | 0.246
40 | GATCTGCCTTGGGTTCTAACCTGTTGCCT (site GATCTGCCTAG) | 0.984

Row | Sequence | recombinant barcode read abundance (log10)
41 | GATGGGACTTGGGTTCTAACCTGTTGCCG (site GATAGGACTAG) | 0.0533
42 | GATGGGACTTGGGTTCTAACCTGTTGCCG (site GATGGGACTCG) | 2.19
43 | GATGTGCCTTGGGTTCTAACCTGTTGCGT (site CCGCGAGCTCG) | 0.0696
44 | GATGTGCCTTGGGTTCTAACCTGTTGCGT (site GATGTGCCTAC) | 2.57
45 | GATTATGCTTGGGTTCTAACCTGTTGCCT (site GAGTATGCTAG) | 0.259
46 | GATTATGCTTGGGTTCTAACCTGTTGCCT (site GATTATGCTAG) | 0.615
47 | GATTCTACTTGGGTTCTAACCTGTTGCTT (site GAATCTACTAA) | 0.155
48 | GATTCTACTTGGGTTCTAACCTGTTGCTT (site GACTCTACTAA) | 0.22
49 | GATTCTACTTGGGTTCTAACCTGTTGCTT (site GAGTCTACTAA) | 0.813
50 | GATTCTACTTGGGTTCTAACCTGTTGCTT (site GATTCTACTAA) | 0.0583
51 | GATTTCGCTTGGGTTCTAACCTGTTGCCT (site ATCAGTTCTCA) | 0.0643
52 | GATTTCGCTTGGGTTCTAACCTGTTGCCT (site GATTTCGCTAG) | 0.42
53 | GCAAGCTCTTGGGTTCTAACCTGTTGCTA (site GCAAGCTCTTA) | 1.3
54 | GCAAGCTCTTGGGTTCTAACCTGTTGCTA (site GCAAGGTCTTA) | 0.36
55 | GCAAGGGCTTGGGTTCTAACCTGTTGCCG (site GCAAGGGCTCG) | 1.24
56 | GCAAGGGCTTGGGTTCTAACCTGTTGCCG (site GCTAGGGCTCT) | 0.303
57 | GCAAGGTCTTGGGTTCTAACCTGTTGCAT (site CGTTCTCCTTA) | 0.18
58 | GCAAGGTCTTGGGTTCTAACCTGTTGCAT (site GCAAGGTCTAT) | 2.5
59 | GCAAGGTCTTGGGTTCTAACCTGTTGCTA (site GCAAGCTCTTA) | 0.133
